Like-named read-outs stand apart in the source and are kept apart here.
Columns and labels:
Assay type in all cases: cell-based
M2 = molecular target: T1, M2 (Homo sapiens, UniProt P08172); assay: In vitro functional assay of muscarinic acetylcholine receptor activity, M2
T1 sequence (P08172 1-466): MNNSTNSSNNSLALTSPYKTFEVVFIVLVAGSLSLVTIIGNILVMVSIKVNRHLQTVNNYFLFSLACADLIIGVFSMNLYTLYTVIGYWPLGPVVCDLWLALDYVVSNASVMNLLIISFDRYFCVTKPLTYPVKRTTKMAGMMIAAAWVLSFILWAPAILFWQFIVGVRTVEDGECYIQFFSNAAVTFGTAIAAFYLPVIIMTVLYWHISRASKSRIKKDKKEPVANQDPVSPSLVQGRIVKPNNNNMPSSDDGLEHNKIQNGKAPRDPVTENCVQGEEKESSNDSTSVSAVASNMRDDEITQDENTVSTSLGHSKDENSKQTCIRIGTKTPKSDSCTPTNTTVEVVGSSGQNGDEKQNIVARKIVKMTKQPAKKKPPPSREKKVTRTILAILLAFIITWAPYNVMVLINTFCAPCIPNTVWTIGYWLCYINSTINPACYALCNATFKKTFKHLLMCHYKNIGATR
Method: [The procedure below names another target; the source lists this target under the same test.] (§1) CHO-K1 cells stably expressing human M1 receptor with Aequorin (Perkin Elmer) were grown in F12 media, 10% FBS with 0.4 mg/mL geneticin and […]. Cells were grown to confluence and frozen down to be assayed at a later date. On the day of the experiment cells were thawed in a 37° C. water bath, resuspended in DMEM/HAM's F12 with HEPES (Invitrogen)+0.1% protease-free BSA (assay buffer), and spun down to remove freezing media. After centrifugation, supernatant was removed and 12 mL of assay buffer was added. Coelenterazine h (Promega) was added to the cells at a final concentration of 5 uM and incubated for 4 hours at room temperature in the dark. Compound master plate-96 deep well (Corning) were formatted in a 8-point DRC in assay buffer with 0.2% DMSO at a starting concentration of 60 uM (2×). After 4 hours of incubation, cells were plated at a concentration of 5×10^5 cells/well in 96 well white-walled, tissue culture-treated, clear-bottom plates (VWR). Compounds were added to the daughter plate, and cells plus compound were incubated at room temperature for 30 minutes in the dark.
(§2) Calcium flux was measured using the FlexStation 3 (Molecular Devices). To measure the antagonist dose-response, the EC80 of Acetylcholine was injected to the daughter plate using the automated compound transfer function of the Flex Station, and the increase in luminescence was measured over time. Antagonist activity was analyzed as a concentration dependent decrease in the EC80 acetylcholine response. Dose response curves were generated using Prism (GraphPad Software). The IC50 of the compounds was calculated from the dose response curve.

human M1 receptor = molecular target: T2, human M1 receptor (Homo sapiens, UniProt P11229); assay: In vitro functional assay of muscarinic acetylcholine receptor activity (aequorin calcium flux, antagonist mode vs EC80 acetylcholine), M1
T2 sequence (P11229 1-460): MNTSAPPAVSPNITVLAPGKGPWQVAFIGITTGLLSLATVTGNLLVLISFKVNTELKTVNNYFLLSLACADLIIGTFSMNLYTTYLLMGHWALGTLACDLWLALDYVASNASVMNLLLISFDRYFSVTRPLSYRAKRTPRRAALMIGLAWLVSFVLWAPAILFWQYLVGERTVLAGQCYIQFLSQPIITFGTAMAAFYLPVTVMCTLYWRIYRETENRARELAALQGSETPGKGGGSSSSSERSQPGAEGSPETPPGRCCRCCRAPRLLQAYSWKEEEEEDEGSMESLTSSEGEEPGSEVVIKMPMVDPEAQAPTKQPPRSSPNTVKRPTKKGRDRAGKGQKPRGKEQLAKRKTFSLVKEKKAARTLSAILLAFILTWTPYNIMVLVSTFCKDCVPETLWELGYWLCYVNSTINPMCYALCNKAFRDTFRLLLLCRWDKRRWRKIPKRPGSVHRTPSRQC
Method: as §1, §2

M3 = M3 (Homo sapiens, UniProt P20309); assay: In vitro functional assay of muscarinic acetylcholine receptor activity, M3; settings: antagonist IC50 at M3; read-out: M3 IC50
Sequence of M3 (P20309 whole entry): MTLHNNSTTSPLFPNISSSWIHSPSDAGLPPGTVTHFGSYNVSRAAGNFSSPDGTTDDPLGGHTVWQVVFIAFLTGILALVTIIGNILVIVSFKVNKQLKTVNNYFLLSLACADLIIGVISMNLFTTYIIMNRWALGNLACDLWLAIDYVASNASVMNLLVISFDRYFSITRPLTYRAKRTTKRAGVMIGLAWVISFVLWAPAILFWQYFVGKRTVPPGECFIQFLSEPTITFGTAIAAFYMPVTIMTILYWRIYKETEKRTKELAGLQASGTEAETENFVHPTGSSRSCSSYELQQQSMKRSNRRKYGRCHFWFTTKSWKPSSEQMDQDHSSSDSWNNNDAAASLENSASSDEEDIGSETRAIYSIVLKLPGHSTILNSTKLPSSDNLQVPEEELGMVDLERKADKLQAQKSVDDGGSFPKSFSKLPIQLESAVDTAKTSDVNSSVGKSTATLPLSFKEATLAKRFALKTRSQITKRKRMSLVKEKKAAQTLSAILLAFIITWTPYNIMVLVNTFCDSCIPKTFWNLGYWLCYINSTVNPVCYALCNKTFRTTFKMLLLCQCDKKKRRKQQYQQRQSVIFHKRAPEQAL
Method: [The procedure below names another target; the source lists this target under the same test.] as §1, §2

[1] = CHO-K1 cells stably expressing human M1 receptor with Aequorin, decrease in EC80 acetylcholine response, read-out: M1 IC50
[2] = antagonist IC50 at M2, read-out: M2 IC50

| IC50 (human M1 receptor; [1]) [µM] | IC50 (M3) [µM] | IC50 (M2; [2]) [µM] | SMILES | IC50 (M2) [µM] | IC50 (human M1 receptor) [µM] |
| --- | --- | --- | --- | --- | --- |
| < 0.1 | 1 to 10 | 1 to 10 | O=C(CCCc1cccc2ncccc12)N1CCN(c2ccncc2)CC1 [Example 4, 1-(4-(pyridin-4-yl)piperazin-1-yl)-4-(quinolin-5-yl)butan-1-one] |  |  |
| > 10 | > 10 | > 10 | CC1CN(c2ccc(F)cn2)CCN1C(=O)[C@H]1C[C@H](Oc2cccc3ncsc23)C1 (stereo partly drawn) [Example 5, ((1R,3R)-3-(benzo[d]thiazol-7-yloxy)cyclobutyl)(4-(5-fluoropyridin-2-yl)-2-methylpiperazin-1-yl)methanone] |  |  |
| 0.1 to 1 | 1 to 10 | 1 to 10 | Cc1cc(F)cnc1N1CCN(C(=O)CNCc2cccc3ncccc23)[C@@H](C)C1 [Example 13, 1-[(2S)-4-(5-fluoro-3-methylpyridin-2-yl)-2-methylpiperazin-1-yl]-2-[[(quinolin-5-yl)methyl]amino]ethanone] |  |  |
| 0.1 to 1 | > 10 | 1 to 10 | O=C(CCS(=O)(=O)c1cccc2ncsc12)N1CCN(c2ccncc2F)CC1 [Example 16, 3-(benzo[d]thiazol-7-ylsulfonyl)-1-(4-(3-fluoropyridin-4-yl)piperazin-1-yl)propan-1-one] |  |  |
| 0.1 to 1 | 1 to 10 | 0.1 to 1 | COc1cnc2cccc(S(=O)(=O)CCCC(=O)N3CCN(c4ncc(F)cc4C)C[C@@H]3C)c2c1 [Example 17, (S)-1-(4-(5-fluoro-3-methylpyridin-2-yl)-2-methylpiperazin-1-yl)-4-((3-methoxyquinolin-5-yl)sulfonyl)butan-1-one] |  |  |
| < 0.1 | 1 to 10 | 1 to 10 | Cc1cc(F)cnc1N1CCN(C(=O)CCS(=O)(=O)c2cccc3ncsc23)[C@@H](C)C1 [Example 18, 3-(1,3-benzothiazole-7-sulfonyl)-1-[(2S)-4-(5-fluoro-3-methylpyridin-2-yl)-2-methylpiperazin-1-yl]propan-1-one] |  |  |
| < 0.1 | > 10 | 0.1 to 1 | C[C@@H]1CN(c2ccncc2Cl)CCN1C(=O)CCS(=O)(=O)c1cccc2ncsc12 [Example 19, 3-(1,3-benzothiazole-7-sulfonyl)-1-[(2R)-4-(3-chloropyridin-4-yl)-2-methylpiperazin-1-yl]propan-1-one] |  |  |
| < 0.1 | 1 to 10 | 0.1 to 1 | C[C@H]1CN(c2ccnc(N)c2)CCN1C(=O)CCS(=O)(=O)c1cccc2ncsc12 [Example 21, (S)-1-(4-(2-aminopyridin-4-yl)-2-methylpiperazin-1-yl)-3-(benzo[d]thiazol-7-ylsulfonyl)propan-1-one] |  |  |
| 0.1 to 1 | 1 to 10 | 1 to 10 | O=C(CCS(=O)(=O)c1cccc2ncsc12)N1CCC(c2ccc(C(F)(F)F)cn2)CC1 [Example 22, 3-(1,3-benzothiazole-7-sulfonyl)-1-[4-[5-(trifluoromethyl)pyridin-2-yl]piperidin-1-yl]propan-1-one] |  |  |
| < 0.1 | > 10 | 0.1 to 1 | Cc1cc(C#N)ncc1N1CCN(C(=O)CCS(=O)(=O)c2cccc3ncsc23)[C@@H](C)C1 [Example 25, 5-[(3S)-4-[3-(1,3-benzothiazole-7-sulfonyl)propanoyl]-3-methylpiperazin-1-yl]-4-methylpyridine-2-carbonitrile] |  |  |
| 0.1 to 1 | > 10 | > 10 | C[C@H]1CN(c2c[nH]c(=O)cc2Cl)CCN1C(=O)CCS(=O)(=O)c1cccc2ncsc12 [Example 26, 5-[(3S)-4-[3-(1,3-benzothiazole-7-sulfonyl)propanoyl]-3-methylpiperazin-1-yl]-4-chloro-1,2-dihydropyridin-2-one] |  |  |

Further lines, the compound ahead of its results:

| SMILES | IC50 (human M1 receptor; [1]) [µM] | IC50 (M3) [µM] | IC50 (M2; [2]) [µM] | IC50 (M2) [µM] | IC50 (human M1 receptor) [µM] |
| --- | --- | --- | --- | --- | --- |
| O=C(N1CC(Oc2cccc3cnccc23)C1)N1C[C@H]2CC[C@@H](C1)N2c1ccc(F)cn1 [Example 3, ((1R,5S)-8-(5-fluoropyridin-2-yl)-3,8-diazabicyclo[3.2.1]octan-3-yl)(3-(isoquinolin-5-yloxy)azetidin-1-yl)methanone] | > 10 | 1 to 10 |  | 0.1 to 1 |  |
| O=C(C1CN(Cc2cccc3ncsc23)C1)N1C[C@H]2CC[C@@H](C1)N2c1ccncc1F [Example 7] | 1 to 10 | > 10 | > 10 |  |  |
| O=C(CCNCc1cccc2ncsc12)N1C[C@H]2CC[C@@H](C1)N2c1ccncc1F [Example 8, 3-((benzo[d]thiazol-7-ylmethyl)amino)-1-((1R,5S)-8-(3-fluoropyridin-4-yl)-3,8-diazabicyclo[3.2.1]octan-3-yl)propan-1-one] |  | 1 to 10 | 1 to 10 |  | < 0.1 |
| O=C(C1CC1COc1cccc2ncsc12)N1C[C@H]2CC[C@@H](C1)N2c1ccncc1F (stereo partly drawn) [Example 9, (2-((benzo[d]thiazol-7-yloxy)methyl)-cyclopropyl)((1R,5S)-8-(3-fluoropyridin-4-yl)-3,8-diazabicyclo[3.2.1]octan-3-yl)methanone] | > 10 | 1 to 10 | 1 to 10 |  |  |
| O=C(CCNCc1cccc2ncccc12)N1C[C@H]2CC[C@@H](C1)N2c1ccncc1F [Example 10, 1-((1R,5S)-8-(3-fluoropyridin-4-yl)-3,8-diazabicyclo[3.2.1]octan-3-yl)-3-((quinolin-5-ylmethyl)amino)propan-1-one] | 1 to 10 | > 10 | > 10 |  |  |
| O=C(COCCc1cccc2ncccc12)N1C[C@H]2CC[C@@H](C1)N2c1ccncc1F [Example 11, 1-((1R,5S)-8-(3-fluoropyridin-4-yl)-3,8-diazabicyclo-[3.2.1]octan-3-yl)-2-(2-(quinolin-5-yl)ethoxy)ethan-1-one] |  | > 10 | 1 to 10 |  | 0.1 to 1 |
| O=C(CCOCc1cccc2nccn12)N1C[C@H]2CC[C@@H](C1)N2c1ccncc1F [Example 12, 1-((1R,5S)-8-(3-fluoropyridin-4-yl)-3,8-diazabicyclo[3.2.1]octan-3-yl)-3-(imidazo[1,2-a]pyridin-5-ylmethoxy)propan-1-one] |  | > 10 | 1 to 10 |  | 0.1 to 1 |
| O=C(CCNCc1cccc2nccn12)N1CC2CCC(C1)N2c1ccncc1F [Example 14, 1-[8-(3-fluoropyridin-4-yl)-3,8-diazabicyclo[3.2.1]octan-3-yl]-3-[([imidazo[1,2-a]pyridin-5-yl]methyl)amino]propan-1-one] |  | > 10 | > 10 |  | 0.1 to 1 |
| O=C(CNCCc1cccc2ncsc12)N1CC2CCC(C1)N2c1ccncc1F [Example 15, 2-[[2-(1,3-benzothiazol-7-yl)ethyl]amino]-1-[8-(3-fluoropyridin-4-yl)-3,8-diazabicyclo[3.2.1]octan-3-yl]ethan-1-one] |  | > 10 | 1 to 10 |  | 0.1 to 1 |
| C[C@@H]1CN(c2ccc(F)c(C#N)c2)CCN1C(=O)CCCc1cccc2ncccc12 [Example 23, (R)-2-fluoro-5-(3-methyl-4-(4-(quinolin-5-yl)butanoyl)piperazin-1-yl)benzonitrile] | < 0.1 | 1 to 10 | 1 to 10 |  |  |
| N#Cc1ccc(N2C3CCC2CN(C(=O)CCS(=O)(=O)c2cccc4ncsc24)C3)nc1 [Example 24, 6-{3-[3-(1,3-benzothiazole-7-sulfonyl)propanoyl]-3,8-diazabicyclo[3.2.1]octan-8-yl}pyridine-3-carbonitrile] |  | 0.1 to 1 | 0.1 to 1 |  | < 0.1 |
